Values of other authors in patent US10786601B2, “Composition comprising hyaluronic acid and mepivacaine” (Teoxane, priority 2013, dated 2020).

- pKa: 7,6
SMILES: Cc1cccc(C)c1NC(=O)C1CCCCN1C (racemic) [mepivacaine]
